In patent publication US8168651B2, “Protein kinase modulators” (Cylene Pharmaceuticals, Inc., priority 2008, dated 2012):

Experiments:
recombinant human PIM1 = recombinant human PIM1 (Homo sapiens (Human), UniProt P11309); test: PIM-1 kinase activity in cell-free in vitro assay; format: biochemical; conditions: cell-free assay; for inhibition at 0.5 µM: 500 nM compound, read-out: PIM-1: % inh 500 nM
K-562 = test: Cell proliferation modulatory activity, K-562; format: cell-based; conditions: Homo sapiens, K562; K-562 cells
recombinant human CK2 = recombinant human CK2 (Homo sapiens (Human), UniProt P68400); test: CK2 assay (cell-free, 33P-ATP filter plate); format: biochemical; conditions: 500 nM compound, cell-free assay; read-out: CK2: % inh 500 nM
Sequence of recombinant human CK2 (P68400 whole entry): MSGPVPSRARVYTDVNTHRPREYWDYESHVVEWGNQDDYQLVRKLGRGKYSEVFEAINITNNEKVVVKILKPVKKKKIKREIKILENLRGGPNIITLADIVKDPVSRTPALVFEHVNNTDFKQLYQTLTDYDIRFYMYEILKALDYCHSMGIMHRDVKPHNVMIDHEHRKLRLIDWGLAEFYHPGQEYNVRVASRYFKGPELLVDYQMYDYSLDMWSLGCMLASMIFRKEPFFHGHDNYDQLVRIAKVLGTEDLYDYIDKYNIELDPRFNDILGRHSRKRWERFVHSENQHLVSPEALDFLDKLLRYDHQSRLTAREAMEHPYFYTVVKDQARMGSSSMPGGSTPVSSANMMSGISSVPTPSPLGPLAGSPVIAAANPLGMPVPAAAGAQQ
Sequence of recombinant human CK2 (P67870 whole entry partner): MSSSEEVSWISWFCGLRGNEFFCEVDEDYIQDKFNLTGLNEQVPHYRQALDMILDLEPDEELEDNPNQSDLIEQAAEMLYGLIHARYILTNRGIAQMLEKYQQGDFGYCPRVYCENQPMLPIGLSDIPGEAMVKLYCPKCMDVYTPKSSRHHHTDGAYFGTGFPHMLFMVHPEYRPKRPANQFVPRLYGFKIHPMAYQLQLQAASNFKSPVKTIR

MV-4-11 = test: Cell proliferation modulatory activity, MV-4-11; format: cell-based; conditions: Homo sapiens, MV4-11; MV-4-11 cells
[1] = tested on: HCT-116 human colorectal carcinoma cells; test: Cell-proliferation assay using Alamar Blue dye; format: cell-based; conditions: Homo sapiens, HCT-116, second HCT-116 column (c8); read-out: HCT-116 (uM) cell proliferation modulatory activity;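 also: cells exposed to compound for about 4 days, then Alamar Blue added and dye fluorescence read after about 4 h, compared with medium-only control wells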

Sequence of recombinant human PIM1 (P11309 whole entry): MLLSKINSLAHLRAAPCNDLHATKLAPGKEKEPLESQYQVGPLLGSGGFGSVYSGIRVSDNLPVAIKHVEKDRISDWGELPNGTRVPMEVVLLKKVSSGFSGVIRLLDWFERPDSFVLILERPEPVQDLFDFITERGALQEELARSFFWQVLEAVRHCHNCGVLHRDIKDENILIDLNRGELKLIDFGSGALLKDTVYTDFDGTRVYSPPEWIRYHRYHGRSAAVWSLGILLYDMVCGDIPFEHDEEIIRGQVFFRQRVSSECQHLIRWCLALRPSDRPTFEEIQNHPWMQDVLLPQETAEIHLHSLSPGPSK

Clc1nc2ccccc2c2cnccc12
inhibition at 0.5 µM (recombinant human PIM1): -2.61% | IC50 (K-562): > 10 µM | inhibition at 0.5 µM (recombinant human CK2): 9.99% | IC50 (MV-4-11): > 10 µM | IC50 [1]: > 10 µM

O=C(O)c1ccc2c(c1)nc(Nc1ccc(Br)cc1)c1ccncc12
inhibition at 0.5 µM (recombinant human PIM1): 76.7% | IC50 (recombinant human PIM1): 0.365 µM | IC50 (K-562): > 10 µM | inhibition at 0.5 µM (recombinant human CK2): 97.8% | IC50 (MV-4-11): 5.9 µM | IC50 [1]: > 10 µM

O=C(O)c1ccc2c(c1)nc(Nc1ccc3ncccc3c1)c1ccncc12
inhibition at 0.5 µM (recombinant human PIM1): 93.9% | IC50 (recombinant human PIM1): 0.089 µM | IC50 (K-562): > 10 µM | inhibition at 0.5 µM (recombinant human CK2): 101% | IC50 (MV-4-11): 3.2 µM | IC50 [1]: > 10 µM

CN(c1cccc(Cl)c1)c1nc2cc(C(=O)O)ccc2c2cnccc12
inhibition at 0.5 µM (recombinant human PIM1): 34.8% | IC50 (K-562): > 10 µM | inhibition at 0.5 µM (recombinant human CK2): 89.6% | IC50 (MV-4-11): > 10 µM | IC50 [1]: > 10 µM

O=C(O)c1ccc2c(c1)nc(Nc1ccc3cn[nH]c3c1)c1ccncc12
inhibition at 0.5 µM (recombinant human PIM1): 75.1% | IC50 (recombinant human PIM1): 0.228 µM | IC50 (K-562): > 10 µM | inhibition at 0.5 µM (recombinant human CK2): 101% | IC50 (MV-4-11): > 10 µM | IC50 [1]: > 10 µM

N#Cc1cc(F)cc(Nc2nc3cc(C(=O)O)ccc3c3cnccc23)c1
inhibition at 0.5 µM (recombinant human PIM1): 94.6% | IC50 (recombinant human PIM1): 0.096 µM | IC50 (K-562): > 10 µM | inhibition at 0.5 µM (recombinant human CK2): 101% | IC50 (MV-4-11): > 10 µM | IC50 [1]: > 10 µM

CNc1ccc(C#N)cc1Nc1nc2cc(C(=O)O)ccc2c2cnccc12
inhibition at 0.5 µM (recombinant human PIM1): 19% | IC50 (K-562): > 10 µM | inhibition at 0.5 µM (recombinant human CK2): 65% | IC50 (MV-4-11): 6.15 µM | IC50 [1]: > 10 µM

O=C(O)c1ccc2c(c1)nc(NCCc1ccccc1)c1cnccc12
inhibition at 0.5 µM (recombinant human PIM1): 42.2% | IC50 (K-562): > 10 µM | inhibition at 0.5 µM (recombinant human CK2): -0.531% | IC50 (MV-4-11): > 10 µM | IC50 [1]: > 10 µM

O=C(O)c1ccc2c(c1)nc(Nc1ccc(F)c(Cl)c1)c1cnccc12
inhibition at 0.5 µM (recombinant human PIM1): 10.8% | IC50 (K-562): > 10 µM | inhibition at 0.5 µM (recombinant human CK2): 1.69% | IC50 (MV-4-11): > 10 µM | IC50 [1]: > 10 µM

O=C(O)c1ccc2c(c1)nc(Nc1ccccc1)c1cnccc12
inhibition at 0.5 µM (recombinant human PIM1): -22.8% | IC50 (K-562): > 10 µM | inhibition at 0.5 µM (recombinant human CK2): -40.3% | IC50 (MV-4-11): > 10 µM | IC50 [1]: > 10 µM

CN(c1ccccc1)c1nc2cc(C(=O)O)ccc2c2ccncc12
inhibition at 0.5 µM (recombinant human PIM1): 56.8% | IC50 (recombinant human PIM1): 0.602 µM | IC50 (K-562): > 10 µM | inhibition at 0.5 µM (recombinant human CK2): 15.3% | IC50 (MV-4-11): > 10 µM | IC50 [1]: > 10 µM

O=C(O)c1ccc2c(c1)nc(Nc1cccc(F)c1)c1cnccc12
inhibition at 0.5 µM (recombinant human PIM1): 55.4% | IC50 (recombinant human PIM1): 0.746 µM | IC50 (K-562): > 10 µM | inhibition at 0.5 µM (recombinant human CK2): 35.8% | IC50 (MV-4-11): > 10 µM | IC50 [1]: > 10 µM

C#Cc1cccc(Nc2nc3cc(C(=O)O)ccc3c3ccncc23)c1
inhibition at 0.5 µM (recombinant human PIM1): 46.6% | IC50 (K-562): > 10 µM | inhibition at 0.5 µM (recombinant human CK2): 72.4% | IC50 (MV-4-11): > 10 µM | IC50 [1]: > 10 µM

O=C(O)c1ccc2c(c1)nc(Nc1cccc(Cl)c1)c1nccnc12
inhibition at 0.5 µM (recombinant human PIM1): 9.61% | IC50 (K-562): > 10 µM | inhibition at 0.5 µM (recombinant human CK2): 69.3% | IC50 (MV-4-11): 5.81 µM | IC50 [1]: > 10 µM

O=C(O)c1ccc2c(c1)nc(Nc1ccc(F)c(Cl)c1)c1nccnc12
inhibition at 0.5 µM (recombinant human PIM1): -0.602% | IC50 (K-562): > 10 µM | inhibition at 0.5 µM (recombinant human CK2): 36.5% | IC50 (MV-4-11): > 10 µM | IC50 [1]: > 10 µM

C#Cc1cccc(Nc2nc3cc(C(=O)O)ccc3c3nccnc23)c1
inhibition at 0.5 µM (recombinant human PIM1): -4.59% | IC50 (K-562): > 10 µM | inhibition at 0.5 µM (recombinant human CK2): 85.3% | IC50 (MV-4-11): > 10 µM | IC50 [1]: > 10 µM

COC(=O)c1ccc2c(c1)nc(NCCn1cccc1)c1ccncc12
inhibition at 0.5 µM (recombinant human PIM1): -34.6% | IC50 (K-562): > 10 µM | inhibition at 0.5 µM (recombinant human CK2): 9.01% | IC50 (MV-4-11): 2.83 µM | IC50 [1]: 9.97 µM

O=C(O)c1ccc2c(c1)nc(NCCn1cccc1)c1ccncc12
inhibition at 0.5 µM (recombinant human PIM1): 74.5% | IC50 (recombinant human PIM1): 0.094 µM | IC50 (K-562): > 10 µM | inhibition at 0.5 µM (recombinant human CK2): 99.6% | IC50 (MV-4-11): > 10 µM | IC50 [1]: > 10 µM

COC(=O)c1ccc2c(c1)nc(N(C)CCc1ccccn1)c1ccncc12
inhibition at 0.5 µM (recombinant human PIM1): -5.84% | IC50 (K-562): > 10 µM | inhibition at 0.5 µM (recombinant human CK2): -3.68% | IC50 (MV-4-11): > 10 µM | IC50 [1]: > 10 µM
